Where “and” joins values, the source holds several entries; their conditions need not be identical. Equal entries are not always repeated.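 Test compounds were applied to cells in 96-well plates for 48 hours at 5 doses. GI50 = concentration required for 50% inhibition of growth. At the TGI there is no net growth.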
What was measured:
Assay in all cases: NCI tumour cell line growth inhibition, 48 h
BT-549 breast = system: BT-549 breast
HS 578T breast = system: HS 578T breast
RPMI-8226 leukemia = system: RPMI-8226 leukemia
COLO 205 colon = system: COLO 205 colon
OVCAR-8 ovarian = system: OVCAR-8 ovarian
SK-MEL-2 melanoma = system: SK-MEL-2 melanoma
OVCAR-5 ovarian = system: OVCAR-5 ovarian
HT29 colon = system: HT29 colon
SF-539 CNS = system: SF-539 CNS
SK-MEL-28 melanoma = system: SK-MEL-28 melanoma

For COc1ccc2c(c1)[nH]c1c(/C=C/c3ccccc3)nccc12, the TGI (BT-549 breast) was 29.9 µM, the TGI (HS 578T breast) was 45.3 µM and the TGI (RPMI-8226 leukemia) was 93.5 µM. It also gave a TGI (COLO 205 colon) of 19.9 µM, a TGI (OVCAR-8 ovarian) of 42.2 µM and a TGI (SK-MEL-2 melanoma) of 33.2 µM. For the same molecule, the TGI (OVCAR-5 ovarian) was 30.5 µM, the TGI (HT29 colon) was 33.9 µM and the TGI (SF-539 CNS) was 32.3 µM. The TGI (SK-MEL-28 melanoma) was 31.9 µM.

For CCCCCCCCC/C=C/C=C/C(=O)NCC(=O)NC1C(O)C(O)C(Nc2ncnc3nc[nH]c23)OC1C(O)CO (configuration not stated), the GI50 (HS 578T breast) was 0.201 µM, the GI50 (COLO 205 colon) was 0.0002 µM and the TGI (COLO 205 colon) was 0.00389 µM and 0.0337 µM. The GI50 (OVCAR-8 ovarian) was 0.00555 µM, the TGI (OVCAR-8 ovarian) was 0.077 µM and the TGI (SK-MEL-2 melanoma) was 0.057 µM and 0.136 µM. The GI50 (OVCAR-5 ovarian) was 0.00137 µM, the TGI (OVCAR-5 ovarian) was 0.0182 µM and 0.0671 µM and the GI50 (HT29 colon) was 0.000103 µM. The TGI (HT29 colon) was 0.349 µM and 0.117 µM, the TGI (SF-539 CNS) was 0.103 µM and the TGI (SK-MEL-28 melanoma) was 3.25 µM.

Molecule O=C(c1cccs1)N(C(=S)OC12CC3CC(CC(C3)C1)C2)c1ccccc1 has a TGI (BT-549 breast) greater than 100 µM, a TGI (HS 578T breast) greater than 100 µM and a TGI (COLO 205 colon) of 33.8 µM. It also gave a TGI (OVCAR-8 ovarian) greater than 100 µM, a TGI (SK-MEL-2 melanoma) of 39.3 µM and a TGI (OVCAR-5 ovarian) greater than 100 µM. It also gave a TGI (HT29 colon) greater than 100 µM, a TGI (SF-539 CNS) greater than 100 µM and a TGI (SK-MEL-28 melanoma) greater than 100 µM.

In the case of COc1cccc2c1Cc1cc(-c3ccccc3)[n+](C)n1-2, the TGI (BT-549 breast) is reported as 99.5 µM, the TGI (HS 578T breast) is reported as greater than 100 µM and the TGI (RPMI-8226 leukemia) is reported as greater than 100 µM. The TGI (COLO 205 colon) was 7.46 µM, the TGI (OVCAR-8 ovarian) was greater than 100 µM and the TGI (SK-MEL-2 melanoma) was 50 µM. For the same molecule, the TGI (OVCAR-5 ovarian) was greater than 100 µM, the TGI (HT29 colon) was 32 µM and the TGI (SF-539 CNS) was 44.1 µM. For the same molecule, the TGI (SK-MEL-28 melanoma) was greater than 100 µM.

Molecule NCCSC(c1ccccc1)c1ccccc1 has a TGI (BT-549 breast) greater than 100 µM, a TGI (HS 578T breast) of 76.5 µM and a TGI (RPMI-8226 leukemia) of 37.4 µM. It also gave a TGI (COLO 205 colon) of 38.7 µM, a TGI (OVCAR-8 ovarian) of 44 µM and a TGI (SK-MEL-2 melanoma) of 32.8 µM. For the same molecule, the TGI (OVCAR-5 ovarian) was 34 µM, the TGI (HT29 colon) was 35.5 µM and the TGI (SF-539 CNS) was 37.2 µM. It also gave a TGI (SK-MEL-28 melanoma) of 35.7 µM.

Nc1nc(SCCc2ccccc2)nc2nc3c(c(-c4ccccc4)c12)CCCC3 was tested, and the TGI (BT-549 breast) was greater than 100 µM, the TGI (HS 578T breast) was 64.7 µM and the TGI (RPMI-8226 leukemia) was greater than 100 µM. For the same molecule, the TGI (COLO 205 colon) was greater than 100 µM, the TGI (OVCAR-8 ovarian) was greater than 100 µM and the TGI (HT29 colon) was greater than 100 µM. It also gave a TGI (SF-539 CNS) greater than 100 µM and a TGI (SK-MEL-28 melanoma) greater than 100 µM.

In the case of Clc1cc2c(cc1Cl)CC(NCCN1CCCC1)CC2 (configuration not stated), the TGI (BT-549 breast) is reported as 28.8 µM, the TGI (HS 578T breast) is reported as 42.4 µM and the TGI (RPMI-8226 leukemia) is reported as 38.1 µM. For the same molecule, the TGI (COLO 205 colon) was 10.7 µM, the TGI (OVCAR-8 ovarian) was 31.1 µM and the TGI (SK-MEL-2 melanoma) was 34.9 µM. It also gave a TGI (OVCAR-5 ovarian) of 29.6 µM, a TGI (HT29 colon) of 18.1 µM and a TGI (SF-539 CNS) of 28 µM. For the same molecule, the TGI (SK-MEL-28 melanoma) was 29.9 µM.

With NC(=O)c1c(NC(=O)c2ccccn2)sc2c1CCC(=O)C2 the GI50 (BT-549 breast) was 2.18 µM, the TGI (BT-549 breast) was greater than 100 µM and the GI50 (HS 578T breast) was 4.22 µM. For the same molecule, the TGI (HS 578T breast) was greater than 100 µM, the GI50 (OVCAR-8 ovarian) was 3.45 µM and the TGI (OVCAR-8 ovarian) was greater than 100 µM. The GI50 (OVCAR-5 ovarian) was 3.05 µM and the TGI (OVCAR-5 ovarian) was greater than 100 µM.
